Measured values published in patent US10047051B2, “Substituted pyridines and method of use” (AbbVie S.á{acute over (.)}r.l., priority 2015, dated 2018).

Legend:
CFTR G551D mutant = biological target: T1, CFTR G551D mutant (Homo sapiens, UniProt P13569, G551D); test: YFP-halide influx assay for the CFTR-G551D mutation (HEK293 cells); assay type: cell-based; conditions: forskolin 10.67 μM
T1 construct: expressed in transfected cells; host or cells: HEK293 cells, reverse transfection with plasmids
T1 sequence (P13569 whole entry G551D): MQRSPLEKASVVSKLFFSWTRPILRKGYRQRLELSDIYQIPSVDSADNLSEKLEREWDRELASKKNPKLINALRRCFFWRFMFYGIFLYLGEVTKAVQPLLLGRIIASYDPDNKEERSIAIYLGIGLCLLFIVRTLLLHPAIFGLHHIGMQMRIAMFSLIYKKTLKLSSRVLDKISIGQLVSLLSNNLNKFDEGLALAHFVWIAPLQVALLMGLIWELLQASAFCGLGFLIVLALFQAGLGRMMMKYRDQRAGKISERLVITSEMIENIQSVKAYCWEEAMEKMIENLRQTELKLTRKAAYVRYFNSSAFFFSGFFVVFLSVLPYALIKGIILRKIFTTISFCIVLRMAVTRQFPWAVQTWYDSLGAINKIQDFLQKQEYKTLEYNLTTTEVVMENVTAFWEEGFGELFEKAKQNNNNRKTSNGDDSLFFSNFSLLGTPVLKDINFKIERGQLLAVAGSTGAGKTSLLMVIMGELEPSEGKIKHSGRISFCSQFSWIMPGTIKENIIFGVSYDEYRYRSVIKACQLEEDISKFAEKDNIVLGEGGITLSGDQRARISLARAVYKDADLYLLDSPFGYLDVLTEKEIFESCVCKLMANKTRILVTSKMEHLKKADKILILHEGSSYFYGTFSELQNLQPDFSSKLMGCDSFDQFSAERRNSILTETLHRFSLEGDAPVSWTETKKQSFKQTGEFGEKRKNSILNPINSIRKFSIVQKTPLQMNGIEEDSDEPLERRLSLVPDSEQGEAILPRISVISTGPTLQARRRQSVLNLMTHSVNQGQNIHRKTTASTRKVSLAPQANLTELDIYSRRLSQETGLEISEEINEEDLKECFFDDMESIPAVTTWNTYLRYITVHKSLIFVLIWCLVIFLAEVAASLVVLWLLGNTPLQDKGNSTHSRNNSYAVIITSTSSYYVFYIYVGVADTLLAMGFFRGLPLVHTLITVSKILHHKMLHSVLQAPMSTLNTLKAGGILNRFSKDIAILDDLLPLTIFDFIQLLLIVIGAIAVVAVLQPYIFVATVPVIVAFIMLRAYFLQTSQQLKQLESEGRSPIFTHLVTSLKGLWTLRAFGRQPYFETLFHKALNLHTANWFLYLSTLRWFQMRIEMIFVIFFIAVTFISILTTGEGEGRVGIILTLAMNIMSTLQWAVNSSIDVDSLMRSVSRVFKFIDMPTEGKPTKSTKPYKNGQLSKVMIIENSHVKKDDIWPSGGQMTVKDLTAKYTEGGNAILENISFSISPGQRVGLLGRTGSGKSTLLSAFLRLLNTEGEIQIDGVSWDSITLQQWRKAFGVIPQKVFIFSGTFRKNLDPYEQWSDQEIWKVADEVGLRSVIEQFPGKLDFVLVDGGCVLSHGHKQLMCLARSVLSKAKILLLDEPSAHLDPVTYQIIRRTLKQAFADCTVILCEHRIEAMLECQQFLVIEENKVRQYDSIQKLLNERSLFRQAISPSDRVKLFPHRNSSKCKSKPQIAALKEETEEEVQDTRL
How it was run: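 Channel opening read as I⁻-driven quenching of a YFP H148Q/I152L/F47L reporter over 7 s post-injection, expressed as 1−F/F0 and fitted against concentration for EC50. Cells were HEK293 co-transfected at seeding with G551D CFTR plus reporter, then grown 24 h at 37 °C, 5% CO2.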

CFTR ΔF508 mutant = biological target: T2, CFTR ΔF508 mutant (Homo sapiens, UniProt P13569, DEL508-508); test: YFP-halide influx assay for the CFTR-ΔF508 mutation (CFBE41o- cells); assay type: cell-based; conditions: forskolin 10.67 μM; for EC50: from (1−F/F0) vs concentration plot
T2 construct: expressed in transfected cells; host or cells: CFBE41o- cells, adenoviral transduction
T2 sequence (P13569 with tags, fused parts or gaps DEL508-508): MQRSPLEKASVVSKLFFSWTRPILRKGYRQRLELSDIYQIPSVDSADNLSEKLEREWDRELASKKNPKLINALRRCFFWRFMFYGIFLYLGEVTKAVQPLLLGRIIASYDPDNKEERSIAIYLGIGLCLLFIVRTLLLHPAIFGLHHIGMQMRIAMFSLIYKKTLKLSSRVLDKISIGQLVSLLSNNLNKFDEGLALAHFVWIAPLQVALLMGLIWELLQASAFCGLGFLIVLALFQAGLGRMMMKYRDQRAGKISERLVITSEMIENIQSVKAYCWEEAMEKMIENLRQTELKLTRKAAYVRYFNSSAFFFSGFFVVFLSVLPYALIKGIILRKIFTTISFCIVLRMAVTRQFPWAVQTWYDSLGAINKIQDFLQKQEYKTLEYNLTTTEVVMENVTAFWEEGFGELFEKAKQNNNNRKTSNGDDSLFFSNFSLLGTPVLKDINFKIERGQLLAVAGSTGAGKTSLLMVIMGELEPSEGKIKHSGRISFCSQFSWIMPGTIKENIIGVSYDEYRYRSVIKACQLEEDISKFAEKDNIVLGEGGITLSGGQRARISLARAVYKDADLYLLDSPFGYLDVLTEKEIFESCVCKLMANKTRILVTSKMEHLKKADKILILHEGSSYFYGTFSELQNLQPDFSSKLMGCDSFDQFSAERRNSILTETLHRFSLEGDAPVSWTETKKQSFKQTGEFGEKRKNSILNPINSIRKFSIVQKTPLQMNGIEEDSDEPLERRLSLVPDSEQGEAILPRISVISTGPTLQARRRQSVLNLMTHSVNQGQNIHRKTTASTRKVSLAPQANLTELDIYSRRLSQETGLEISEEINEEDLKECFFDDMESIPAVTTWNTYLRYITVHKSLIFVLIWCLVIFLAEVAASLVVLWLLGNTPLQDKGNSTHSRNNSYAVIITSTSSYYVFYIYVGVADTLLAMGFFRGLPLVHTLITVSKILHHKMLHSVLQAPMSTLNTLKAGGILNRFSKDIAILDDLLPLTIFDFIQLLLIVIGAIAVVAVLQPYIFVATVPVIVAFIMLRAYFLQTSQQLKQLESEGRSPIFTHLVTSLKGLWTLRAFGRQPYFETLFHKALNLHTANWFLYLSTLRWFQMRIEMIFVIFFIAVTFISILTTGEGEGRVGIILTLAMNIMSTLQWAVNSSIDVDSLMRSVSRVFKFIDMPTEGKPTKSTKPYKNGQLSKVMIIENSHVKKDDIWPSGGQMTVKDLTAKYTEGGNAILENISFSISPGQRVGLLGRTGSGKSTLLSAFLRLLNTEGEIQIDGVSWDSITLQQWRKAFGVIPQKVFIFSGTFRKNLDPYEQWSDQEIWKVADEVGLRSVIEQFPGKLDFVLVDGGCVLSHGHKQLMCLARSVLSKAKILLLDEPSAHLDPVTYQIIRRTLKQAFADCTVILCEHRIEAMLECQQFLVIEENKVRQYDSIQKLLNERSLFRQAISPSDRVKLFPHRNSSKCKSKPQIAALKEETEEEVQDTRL
How it was run: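 EC50 derived from plotting 1−F/F0 (fluorescence 36 s after iodide injection over pre-injection value) against compound concentration. Cells: CFBE41o- transduced with ΔF508-CFTR and YFP quench reporter, corrected 24 h at 27° C or by a CFTR modulator at 37° C.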

% Activation (CFTR G551D mutant) | EC50 (CFTR G551D mutant) | % Activation (CFTR ΔF508 mutant) | EC50 (CFTR ΔF508 mutant) | SMILES
5.4% | > 10000 nM | 44.9% | 1390 nM | Nc1cc(S(=O)(=O)c2ccc(C(F)(F)F)cc2)cnc1C(=O)N1CCC[C@@H]1CO [Compound 233, (3-amino-5-{[4-(trifluoromethyl)phenyl]sulfonyl}pyridin-2-yl) [(2R)-2-(hydroxymethyl)pyrrolidin-1-yl]methanone]
46.1% | 1090 nM | 102.4% | 39.3 nM | CC[C@@H](CO)NC(=O)c1ncc(S(=O)(=O)c2ccc(C(F)(F)F)cc2)cc1N [Compound 234, 3-amino-N-[(2S)-1-hydroxybutan-2-yl]-5-{[4-(trifluoromethyl)phenyl]sulfonyl}pyridine-2-carboxamide]
14.4% |  | 58.5% | > 667 nM | Nc1cc(S(=O)(=O)c2ccc(C(F)(F)F)cc2)cnc1C(=O)N[C@@H]1COCC[C@@H]1O [Compound 235, 3-amino-N-[(3R,4S)-4-hydroxytetrahydro-2H-pyran-3-yl]-5-{[4-(trifluoromethyl)phenyl]sulfonyl}pyridine-2-carboxamide]
77.2% | 364 nM | 115.5% | 3.6 nM | Nc1cc(S(=O)(=O)c2cccc(OC(F)(F)F)c2)cnc1C(=O)NCC(O)C(F)(F)F (stereo not drawn) [Compound 236, 3-amino-N-(3,3,3-trifluoro-2-hydroxypropyl)-5-{[3-(trifluoromethoxy)phenyl]sulfonyl}pyridine-2-carboxamide]
69.5% | 546 nM | 106.5% | 9.9 nM | CC(C)Oc1ccc(S(=O)(=O)c2cnc(C(=O)NCC(O)C(F)(F)F)c(N)c2)cc1 (stereo not drawn) [Compound 237, 3-amino-5-{[4-(propan-2-yloxy)phenyl]sulfonyl}-N-(3,3,3-trifluoro-2-hydroxypropyl)pyridine-2-carboxamide]
4.8% | > 10000 nM | 53.7% | 538 nM | Nc1cc(S(=O)(=O)CC2CCCO2)cnc1C(=O)NCC(O)C(F)(F)F (stereo not drawn) [Compound 238, 3-amino-5-[(tetrahydrofuran-2-ylmethyl)sulfonyl]-N-(3,3,3-trifluoro-2-hydroxypropyl)pyridine-2-carboxamide]
76.5% | 1050 nM | 95.8% | 29.5 nM | COCC(O)CNC(=O)c1ncc(S(=O)(=O)c2ccc(C(F)(F)F)cc2)cc1N (stereo not drawn) [Compound 239, 3-amino-N-(2-hydroxy-3-methoxypropyl)-5-{[4-(trifluoromethyl)phenyl]sulfonyl}pyridine-2-carboxamide]
50.6% | 949 nM | 98.1% | 137 nM | Nc1cc(S(=O)(=O)c2ccc(C(F)(F)F)cc2)cnc1C(=O)NCCOC(F)(F)F [Compound 240, 3-amino-N-[2-(trifluoromethoxy)ethyl]-5-{[4-(trifluoromethyl)phenyl]sulfonyl}pyridine-2-carboxamide]
71.5% | 841 nM | 103.0% | 25.4 nM | Nc1cc(S(=O)(=O)c2ccc(OC(F)(F)F)cc2)cnc1C(=O)NC[C@H](O)COCC1CC1 [Compound 242, 3-amino-N-[(2S)-3-(cyclopropylmethoxy)-2-hydroxypropyl]-5-{[4-(trifluoromethoxy)phenyl]sulfonyl}pyridine-2-carboxamide]
99.0% | 639 nM | 111.5% | 8.3 nM | CC(C)OC[C@@H](O)CNC(=O)c1ncc(S(=O)(=O)c2ccc(C(F)(F)F)cc2)cc1N [Compound 243, 3-amino-N-[(2S)-2-hydroxy-3-(propan-2-yloxy)propyl]-5-{[4-(trifluoromethyl)phenyl]sulfonyl}pyridine-2-carboxamide]
